In patent US11827628B2, “Compositions and methods for inhibition of the JAK pathway” (Rigel Pharmaceuticals, Inc., priority 2005, dated 2023):
Like-named read-outs stand apart in the source and are kept apart here.

Tests used:
[1] = tested on: Primary human T-cells; assay: Primary Human T-Cell Proliferation Assay Stimulated with IL-2 (CellTiter-Glo); type: cell-based; conditions: read-out: IC50, Example 42
In short: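 IC50 derived from CellTiter-Glo ATP signal after 72 hours of IL-2-driven proliferation at 37° C. Cells: primary human T-cells from blood, stimulated beforehand 3-4 days on anti-CD3/anti-CD28 with IL-2, then rested from IL-2 before compound exposure in duplicate; IL-2-free wells served as unstimulated control.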

[2] = tested on: IL-4 stimulated expression of CD23 in human Ramos B cells (JAK-1 and JAK-3); assay: Assay for Ramos B-Cell Line Stimulated with IL-4 (CD23 upregulation, FACS); type: cell-based; conditions: read-out: IC50, Example 41
In short: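 Read-out: anti-CD23-PE flow cytometry on Ramos B cells, giving IC50. Cells (5×10^4 per point, RPMI + 5% serum) get compound or DMSO for 1 h at 37 °C, then IL-4 50 units/mL final for 20-24 h.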

[3] = Homo sapiens, T-cell, primary human T-cells stimulated with IL-2, proliferation
[4] = Homo sapiens, Ramos, Ramos B cells stimulated with IL-4, CD23 expression by FACS
[5] = primary human T-cell proliferation stimulated with IL-2
[6] = Ramos B-cell line stimulated with IL-4, CD23 expression by FACS
[7] = Homo sapiens, T-cell, primary human T-cell proliferation stimulated with IL-2
[8] = Homo sapiens, Ramos, Ramos B-cell line stimulated with IL-4, CD23 expression by FACS
[9] = primary human T-cells stimulated with IL-2, proliferation
[10] = Ramos B cells stimulated with IL-4, CD23 expression by FACS

Molecule	IC50 [2, 4] [nM]	IC50 [2, 6] [nM]	IC50 [1, 3] [nM]	IC50 [1, 5] [nM]	further results
COc1ccc(Nc2nc(Nc3ccc(Cl)c(S(N)(=O)=O)c3)ncc2F)cc1Cl [VI-2, N2-(3-Aminosulfonyl-4-chlorophenyl)-N4-(3-chloro-4-methoxyphenyl)-5-fluoro-2,4-pyrimidinediamine]	89.2	–	3570	–	–
N2-(3-Aminosulfonyl-4-methylphenyl)-N4-(4-benzylphenyl)-5-fluoro-2,4-pyrimidinediamine [III-63]	–	315	–	1880	–
NS(=O)(=O)c1cc(Nc2ncc(F)c(Nc3ccc(Oc4cccnc4)cc3)n2)cc(S(N)(=O)=O)c1 [II-15, N2-[3,5-bis(Aminosulfonyl)phenyl)-5-fluoro-N4-[4-(3-pyridyloxy)phenyl]-2,4-pyrimidinediamine]	–	–	–	–	IC50 [1, 7]: 1100 nM; IC50 [2, 8]: 982 nM
CNS(=O)(=O)c1cc(Nc2ncc(F)c(Nc3ccc(Cn4cncn4)cc3)n2)ccc1C [III-102, 5-Fluoro-N2-[3-(N-methylaminosulfony)-4-methylphenyl]-N4-{4-[1-(1,2,4-thazolyl)methyl]phenyl}-2,4-pyrimidinediamine]	–	–	–	–	IC50 [1, 9]: 486 nM; IC50 [2, 10]: 302 nM
Cc1ccc(Nc2ncc(F)c(Nc3ccc(CNC(N)=O)cc3)n2)cc1S(N)(=O)=O [III-34, N4-(4-Aminocarbonylaminomethylphenyl)-N2-(3-aminosulfonyl-4-methylphenyl)-5-fluoro-2,4-pyrimidinediamine]	–	–	–	–	IC50 [1, 7]: 381 nM; IC50 [2, 8]: 473 nM
Cc1noc(COc2cccc(Nc3nc(Nc4ccc(S(N)(=O)=O)cc4)ncc3F)c2)n1 [Compound I-253, N2-(4-Aminosulfonylphenyl)-5-fluoro-N4-[3-(3-methyl-1,2,4-oxadiazol-5-yl)methyleneoxyphenyl]-2,4-pyrimidinediamine]	–	127	–	2560	–
COc1ccc(Nc2nc(Nc3ccc(S(N)(=O)=O)cc3)ncc2F)cc1Cl [VI-106, N2-(4-Aminosulfonylphenyl)-5-fluoro-N4-(4-methoxy-3-chlorophenyl]-2,4-pyrimidinediamine]	62.2	–	1200	–	–
NS(=O)(=O)c1ccc(Nc2ncc(F)c(Nc3ccc(Oc4cccnc4)cc3)n2)cc1 [II-14, N2-(4-Aminosulfonylphenyl)-5-fluoro-N4-[4-(3-pyridyloxy)phenyl]-2,4-pyrimidinediamine]	–	–	–	–	IC50 [1, 7]: 579 nM; IC50 [2, 8]: 46.9 nM
CC(=O)N1CCN(C(=O)c2ccc(Nc3nc(Nc4ccc(C)c(S(N)(=O)=O)c4)ncc3F)cc2)CC1 [IX-24, N4-[4-(1-Acetyl-4-piperizinyl)carbonylphenyl]-N2-(3-Aminosulfonyl-4-methylphenyl)-5-fluoro-2,4-pyrimidinediamine]	–	–	–	–	IC50 [1, 9]: 38400 nM; IC50 [2, 10]: 6330 nM
C#CCOc1ccc(Nc2nc(Nc3ccc(C)c(S(N)(=O)=O)c3)ncc2F)cc1C [VI-58, N2-(3-Aminosulfonyl-4-methylphenyl)-5-fluoro-N4-[3-methyl-4-(prop-2-ynyloxy)phenyl]-2,4-pyrimidinediamine]	164	–	724	–	–
N2-(3-Aminosulfonyl-4-methoxy-5-methylphenyl)-N4-(4-benzylphenyl)-5-fluoro-2,4-pyrimidinediamine [III-65]	–	209	–	936	–
Cc1cc(Nc2nc(Nc3ccc(S(N)(=O)=O)cc3)ncc2F)ccc1OCc1ccccn1 [Compound I-176, N2-(4-Aminosulfonylphenyl)-5-fluoro-N4-[4-(2-pyridinyl)-3-methylmethyleneoxyphenyl]-2,4-pyrimidinediamine]	–	259	–	1690	–
CC(Oc1ccc(Nc2nc(Nc3ccc(S(N)(=O)=O)cc3)ncc2F)cc1)C(N)=O (racemic) [Compound I-116, Racemic N4-[4-(1-Aminocarbonyl)ethoxy]phenyl-N2-(4-aminosulfonyl)phenyl-5-fluoro-2,4-pyrimidinediamine]	–	274	–	972	–
CNC(=O)COc1ccc(Nc2nc(Nc3ccc(C)c(S(N)(=O)=O)c3)ncc2C)cc1Cl [Compound I-151, N2-(3-Aminosulfonyl-4-methylphenyl)-N4-(3-chloro-4-methylaminocarbonylmethoxyphenyl)-5-methyl-2,4-pyrimidinediamine]	–	–	–	–	IC50 [1, 7]: 78.3 nM; IC50 [2, 8]: 61.9 nM
Cc1cc(Nc2ncc(F)c(Nc3ccc(OC(F)(F)F)c(Cl)c3)n2)cc(S(N)(=O)=O)c1F [VI-16, N2-(3-Aminosulfonyl-4-fluoro-5-methylphenyl)-N4-(3-chloro-4-trifluoromethoxyphenyl)-5-fluoro-2,4-pyrimidinediamine]	259	–	3910	–	–
N4-(4-Acetylthiomethylcarbonylphenyl)-N2-(3-aminosulfonylphenyl)-5-fluoro-2,4-pyrimidinediamine [IX-42]	–	–	–	–	IC50 [1, 9]: 2170 nM; IC50 [2, 10]: 292 nM
N#Cc1cc(Nc2nc(Nc3cccc(S(N)(=O)=O)c3)ncc2F)ccc1F [VI-98, N2-(3-Aminosulfonylphenyl)-N4-(3-cyano-4-fluorophenyl)-5-fluoro-2,4-pyrimidinediamine]	136	–	986	–	–
Cc1cnc(Nc2ccc(Cl)c(S(N)(=O)=O)c2)nc1Nc1ccc(OCC(=O)N(C)C)c(F)c1 [Compound I-142, N2-(3-Aminosulfonyl-4-chlorophenyl)-N4-(4-dimethylaminocarbonylmethoxy-3-fluorophenyl)-5-methyl-2,4-pyrimidinediamine]	–	–	–	–	IC50 [1, 7]: 854 nM; IC50 [2, 8]: 155 nM
Cc1cc(Nc2nc(Nc3ccc(S(N)(=O)=O)cc3)ncc2F)cc(C)c1OCC(N)=O [Compound I-114, N4-(4-Aminocarbonylmethoxy-3,5-dimethyl)phenyl-N2-(4-aminosulfonyl)phenyl-5-fluoro-2,4-pyrimidinediamine]	–	448	–	6710	–
CNC(=O)OCCc1ccc(Nc2nc(Nc3ccc(C)c(S(N)(=O)=O)c3)ncc2F)cc1 [III-59, N2-(3-Aminosulfonyl-4-methylphenyl)-5-fluoro-N4-{4-[2-(methylaminocarbonyloxy)ethyl]phenyl}-2,4-pyrimidinediamine]	–	–	–	–	IC50 [1, 7]: 458 nM; IC50 [2, 8]: 150 nM
Cc1ccc(Nc2ncc(F)c(Nc3ccc(C(=O)N4CCN(C)CC4)cc3)n2)cc1S(N)(=O)=O [IX-27, N2-(3-Aminosulfonyl-4-methylphenyl)-5-fluoro-N4-[4-(4-methylpiperazin-1-ylcarbonyl)phenyl]-2,4-pyrimidinediamine]	1380	–	7630	–	–

The next lines start with results.

IC50 [2, 4] [nM]	IC50 [2, 6] [nM]	Molecule	IC50 [1, 3] [nM]	IC50 [1, 5] [nM]	further results
–	258	Cc1cc(CCC#N)ccc1Nc1nc(Nc2cccc(S(N)(=O)=O)c2)ncc1F [III-24, N2-(3-Aminosulfonylphenyl)-N4-(4-cyanoethylene-2-methylphenyl)-5-fluoro-2,4-pyrimidinediamine]	–	1620	–
62.3	–	COc1c(C)cc(Nc2ncc(F)c(Nc3ccc4c(c3)NC(=O)C(F)(F)O4)n2)cc1S(N)(=O)=O [VII-38, N2-(3-Aminosulfonyl-4-methoxy-5-methylphenyl)-N4-(2,2-difluoro-4H-benz[1,4]oxazin-3-on-6-yl)-5-fluoro-2,4-pyrimidinediamine]	417	–	–
–	3750	CCC(=O)NS(=O)(=O)c1cc(Nc2ncc(F)c(Nc3ccc(C=CC#N)c(Cl)c3)n2)ccc1C [III-28, N4-(3-Chloro-4-cyanoethylene-phenyl)-5-fluoro-N2-(4-methyl-3-propionylaminosulfonylphenyl)-2,4-pyrimidinediamine]	–	17400	–
315	–	Cc1ccc(Nc2ncc(F)c(Nc3cccc4ncccc34)n2)cc1S(N)(=O)=O [VII-67, N2-(3-Aminosulfonyl-4-methylphenyl)-5-fluoro-N4-(quinolin-5-yl)-2,4-pyrimidinediamine]	768	–	–
